Test: Hygroscopicity (moisture uptake) test of metformin salts
Assay type: physicochemical
Details: 25°C, 10 days; for moisture-absorption weight increase: 75% RH (saturated NaCl) and 93% RH (saturated KNO3), sampled on day 5 and day 10; for hygroscopicity compared with metformin: 75% RH and 93% RH

SMILES: CN(C)C(=N)N=C(N)N.Oc1cccc2c(O)cccc12 [メトホルミンと1,5-ジヒドロキシナフタレン, メトホルミンと1,5-ジヒドロキシナフタレン塩]
- moisture-absorption weight increase: < 5%
- hygroscopicity compared with metformin: 吸湿性が顕著に低下した

SMILES: CN(C)C(=N)NC(=N)N.O=C(O)Cc1cccc2ccccc12 [メトホルミンと1-ナフタレン酢酸塩]
- moisture-absorption weight increase: < 5%
- hygroscopicity compared with metformin: 吸湿性が顕著に低下した

SMILES: CN(C)C(=N)N=C(N)N.O=C(O)c1ccc2ccccc2c1O [メトホルミンと1-ヒドロキシ-2-ナフトエ酸塩]
- hygroscopicity compared with metformin: 吸湿性が顕著に低下した

SMILES: CN(C)C(=N)NC(=N)N.O=C(O)c1ccc2ccccc2c1 [メトホルミンと2-ナフトエ酸塩]
- moisture-absorption weight increase: < 5%
- hygroscopicity compared with metformin: 吸湿性が顕著に低下した

SMILES: CN(C)C(=N)N=C(N)N.O=C(O)c1cc2ccccc2cc1O [メトホルミンと2-ヒドロキシ-3-ナフトエ酸塩form1]
- moisture-absorption weight increase: < 5%
- hygroscopicity compared with metformin: 吸湿性が顕著に低下した

SMILES: CN(C)C(=N)NC(=N)N.O=C(O)c1cc2ccccc2cc1O [メトホルミンと2-ヒドロキシ-3-ナフトエ酸塩form2]
- moisture-absorption weight increase: < 5%
- hygroscopicity compared with metformin: 吸湿性が顕著に低下した

Reference: patent publication JP2022155436A, “メトホルミン塩の調製方法” (Guangzhou University, priority 2021, dated 2021)
